Laboratory results taken from ChEMBL document CHEMBL2331167, “Inhibitory effect of novel somatostatin peptide analogues on human cancer cell growth based on the selective inhibition of DNA polymerase β” (Bioorg Med Chem, 2013).
Calls of active or inactive are those of the source. No cut-off for these calls is given here.

Tests used:
[1] = Inhibition of human DNA polymerase epsilon using poly(dA)/oligo(dT)18 (A/T, 2/1)/dTTP DNA template-primer substrate measured at 37 degC for 60 mins
HCT-116 [2] = experiment: Induction of apoptosis in p53 +/+ human HCT116 cells assessed as apoptotic cells at 13.2 uM incubated for 24 hrs by TUNEL analysis relative to p53 -/- human HCT116 cells; type: functional
[3] = Inhibition of calf DNA polymerase alpha using poly(dA)/oligo(dT)18 (A/T, 2/1)/dTTP DNA template-primer substrate measured at 37 degC for 60 mins; set-up: species or system Bos taurus
DNA polymerase lambda = biological target: T1, DNA polymerase lambda (Homo sapiens, UniProt Q9UGP5); experiment: Inhibition of human DNA polymerase lambda using poly(dA)/oligo(dT)18 (A/T, 2/1)/dTTP DNA template-primer substrate measured at 37 degC for 60 mins
T1 sequence (Q9UGP5 whole entry): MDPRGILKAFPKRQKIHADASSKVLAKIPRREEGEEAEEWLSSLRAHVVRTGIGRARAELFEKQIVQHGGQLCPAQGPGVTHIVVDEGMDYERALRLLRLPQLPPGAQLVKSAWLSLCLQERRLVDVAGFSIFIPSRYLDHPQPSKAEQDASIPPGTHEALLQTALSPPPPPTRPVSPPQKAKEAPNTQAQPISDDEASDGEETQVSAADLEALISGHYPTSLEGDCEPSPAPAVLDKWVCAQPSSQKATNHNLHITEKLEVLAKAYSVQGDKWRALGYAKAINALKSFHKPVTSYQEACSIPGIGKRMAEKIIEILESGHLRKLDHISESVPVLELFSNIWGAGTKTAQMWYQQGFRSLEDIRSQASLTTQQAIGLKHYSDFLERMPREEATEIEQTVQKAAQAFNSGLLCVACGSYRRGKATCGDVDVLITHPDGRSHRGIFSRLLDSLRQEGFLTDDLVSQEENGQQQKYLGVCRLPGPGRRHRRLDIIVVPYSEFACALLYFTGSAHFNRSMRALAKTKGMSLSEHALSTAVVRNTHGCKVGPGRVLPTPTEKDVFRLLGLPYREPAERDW

HCT-116 [4] = experiment: Induction of apoptosis in p53 +/+ human HCT116 cells assessed as apoptotic cells at 13.2 uM incubated for 24 hrs by TUNEL analysis; type: functional
HCT-116 [5] = experiment: Cytotoxicity against p53 -/- human HCT116 cells assessed as growth inhibition at 200 uM incubated for 24 hrs by WST-1 assay; type: functional, cell-based

CC[C@H](C)[C@H](NC(=O)[C@H](Cc1ccc(O)cc1)NC(=O)OC(C)(C)C)C(=O)Nc1cccc2ccccc12
IC50 [1]: > 200 µM
fold change (FC) (HCT-116 [2]): 3
IC50 [3]: > 200 µM
IC50 (DNA polymerase lambda): > 200 µM
fold change (FC) (HCT-116 [4]): 5
growth inhibition (GI) (HCT-116 [5]): Active
